According to patent US12091670B2, “Bacteria-based protein delivery” (Universitaet Basel, priority 2014, dated 2024):
Entries after “also recorded” stand apart in the source; their conditions may differ.

Assays:
B16F10 cells = type: cell-based
D2A1 cells = type: cell-based
HeLa cells [1] = type: cell-based, human
4T1 cells = type: cell-based
cAMP = type: cell-based, human
HeLa cells [2] = assay: Apoptosis induction in HeLa cells by S. enterica aroA delivered murine tBid fusions (cleaved Caspase 3 p17 western blot); type: cell-based, human; settings: 4 h, MOI of 100
HeLa cells [3] = assay: Removal of YopE1-138 appendage by T3SS-delivered TEV protease, Western blot of digitonin lysed HeLa cells; type: cell-based, human; settings: coinfection, 2 h
From the text: HeLa cells in 6-well plates were infected at an MOI of 100 as described above. In case of coinfection with the TEV protease translocating Y. enterocolitica strain, the OD600 of the strains was set and the two bacterial suspensions were mixed in a tube at a ratio of 1:1 (if not otherwise indicated) before addition to the cells. At the end of the infection, the cells were washed twice with ice-cold PBS and collected by scraping in a small volume of ice-cold PBS. After centrifugation (16 000 rcf, 5 min, 4° C.) the pellet was dissolved in 0.002% digitonin supplemented with a protease inhibitor cocktail (Roche complete, Roche). The dissolved pellets were incubated for 5 minutes on ice and then centrifuged (16 000 rcf, 25 min, 4° C.). Supernatants were collected and analyzed for total protein content by […] (Pierce) before SDS PAGE and Western blotting using an anti-Myc (Santa Cruz, 9E1 1) or anti-Ink4C (Cell Signaling) antibody.

HeLa cells [4] = type: cell-based, human; remark: listed apart in the source
p38 = type: cell-based, human
Akt = type: cell-based, human
[5] = system: actin network in HeLa cells; type: cell-based, human
zebrafish embryos = settings: in vivo
[6] = S. enterica aroA grown under SPI-1 T3SS inducing conditions
[7] = S. enterica aroA grown under SPI-2 T3SS inducing conditions

BH3 domain of murine BID: YopE1-138 fusion with BH3 domain of murine tBID, codon optimized for Y. enterocolitica
cell death / apoptosis induction (B16F10 cells): induce massive cell death; also recorded: induces massive apoptosis
cell death / apoptosis induction (D2A1 cells): induce massive cell death; also recorded: induces massive apoptosis
cell death / apoptosis induction (HeLa cells [1]): induce massive cell death; also recorded: induces massive apoptosis
cell death / apoptosis induction (4T1 cells): induce massive cell death; also recorded: induces massive apoptosis

BepA: YopE1-138 fusion with full length type IV effector BepA from B. henselae
cAMP production (cAMP): triggered cAMP production in expected amounts

BepAE30 5-end: YopE1-138 fusion with BepA E305-end containing the C-terminal Bid domain
cAMP production (cAMP): triggered cAMP production in expected amounts

BepG: YopE1-138 fusion with the Bid domain of the B. henselae effector BepG
cAMP production (cAMP): failed to induce cAMP

Murine tBID fused to full length SteA: murine tBID fused to full length SteA, delivered by S. enterica
apoptosis induction (CASP3 p17 production) (HeLa cells [2]; [6]): lead to apoptosis induction in HeLa cells
apoptosis induction (CASP3 p17 production) (HeLa cells [2]; [7]): lead to apoptosis induction in HeLa cells

TEV protease: TEV protease (S219V variant) fused to YopE1-138, delivered via T3SS
function of TEV protease delivered via T3SS (HeLa cells [3]): functional

YopEi_i38-BID: YopE1-138 fusion with human BH3 interacting-domain death agonist (BID)
apoptosis / cell death induction (HeLa cells [4]): failed to induce apoptosis

YopEi_i38-OspF: YopE1-138 fusion with S. flexneri type III effector OspF
TNFa-induced p38 phosphorylation (p38): TNFa-induced phosphorylation was abolished

YopEi_i38-SopB: YopE1-138 fusion with Salmonella type III effector SopB
phosphorylation of Akt at T308 and S473 (Akt): induced a strong phosphorylation of Akt at T308 and 5473

YopEi_i38-SopE-Myc: YopE1-138 fusion with SopE and MycHis tag
changes in the actin network / F-actin rearrangements [5]: triggered massive F-actin rearrangements

YopEi_i38-SopE: YopE1-138 fusion with SopE from Salmonella enterica
changes in the actin network / F-actin rearrangements [5]: induced dramatic changes in the actin network
time of first changes in the actin cytoskeleton [5]: 2 min p.i.
phosphorylation of Akt at T308 and S473 (Akt): had no effect on Akt

YopEi_i38-SptP: YopE1-138 fusion with SptP, GTPase activating protein for Cdc42
effect of co-infection on YopE1-138-SopE-Myc triggered F-actin rearrangements [5]: abolished this effect in a dose dependent manner

YopEi_i38-z-BIM: YopE1-138 fusion with zebrafish apoptosis inducer BIM
apoptosis / cell death induction (HeLa cells [4]): showed clear signs of cell death
automated image analysis of Caspase 3 p17 staining near bacteria (zebrafish embryos): induce apoptosis in nearby cells by far more than control bacteria do
cleaved CASP3 (apoptosis) in regions surrounding the bacteria (zebrafish embryos): strong increase in presence of cleaved CASP3; also recorded: induces apoptosis in zebrafish embryos

murine BAX: YopE1-138 fusion with BH3 domain of murine BAX, codon optimized for Y. enterocolitica
cell death / apoptosis induction (B16F10 cells): induce massive cell death; also recorded: induces massive apoptosis
cell death / apoptosis induction (D2A1 cells): induce massive cell death; also recorded: induces massive apoptosis
cell death / apoptosis induction (HeLa cells [1]): induce massive cell death; also recorded: induces massive apoptosis
cell death / apoptosis induction (4T1 cells): induce massive cell death; also recorded: induces massive apoptosis

murine tBID: YopE1-138 fusion with murine tBID codon optimized for Y. enterocolitica
cell death / apoptosis induction (B16F10 cells): triggered cell death; also recorded: induces massive apoptosis
cell death / apoptosis induction (D2A1 cells): triggered cell death; also recorded: induces massive apoptosis
cell death / apoptosis induction (HeLa cells [1]): triggered cell death; also recorded: induces massive apoptosis
cell death / apoptosis induction (4T1 cells): triggered cell death; also recorded: induces massive apoptosis

B1: SteAi_2o fused murine tBID: murine tBID fused to the 20 N-terminal amino acids of SteA, delivered by S. enterica (protein)
chain: MPYTSVSTYARALSGNKLPHGTGSQASRSFNQGRIEPDSESQEEIIHNIARHLAQIGDEMDHNIQPTLVRQLAAQFMNGSLSEEDKRNCLAKALDEVKTAFPRDMENDKAMLIMTMLLAKKVASHAPSLLRDVFHTTVNFINQNLFSYVRNLVRNEMD
modifications: SteA1-20 - S. enterica codon optimized murine t-BID
notes: murine tBID fused to the 20 N-terminal amino acids of SteA, delivered by S. enterica
apoptosis induction (CASP3 p17 production) (HeLa cells [2]; [6]): failed to induce apoptosis
apoptosis induction (CASP3 p17 production) (HeLa cells [2]; [7]): failed to induce apoptosis
